The target of test [1] is MAPK14 (UniProt Q16539). Description: Inhibition of MAPK Kinase Activity.
Test [2] deals with PIK3CA (human) (UniProt P42336). Description: Enzyme Assay.
Test [3] has as its target PIK3CB (Human) (UniProt P42338). Description: Enzyme Assay.
Test [4] addresses EGFR (human) (UniProt P00533).
Test [5] addresses MAPK14 (UniProt Q16539). Put plainly: Enzyme Assay.
Test [6] addresses PIK3CB (Human) (UniProt P42338). Description: Cell-Based Assay. The note with it: mda-468.
In test [7] the target is EGFR (human) (UniProt P00533). The note with it: a431.
Sequence of EGFR (human) (P00533 whole entry, looked up): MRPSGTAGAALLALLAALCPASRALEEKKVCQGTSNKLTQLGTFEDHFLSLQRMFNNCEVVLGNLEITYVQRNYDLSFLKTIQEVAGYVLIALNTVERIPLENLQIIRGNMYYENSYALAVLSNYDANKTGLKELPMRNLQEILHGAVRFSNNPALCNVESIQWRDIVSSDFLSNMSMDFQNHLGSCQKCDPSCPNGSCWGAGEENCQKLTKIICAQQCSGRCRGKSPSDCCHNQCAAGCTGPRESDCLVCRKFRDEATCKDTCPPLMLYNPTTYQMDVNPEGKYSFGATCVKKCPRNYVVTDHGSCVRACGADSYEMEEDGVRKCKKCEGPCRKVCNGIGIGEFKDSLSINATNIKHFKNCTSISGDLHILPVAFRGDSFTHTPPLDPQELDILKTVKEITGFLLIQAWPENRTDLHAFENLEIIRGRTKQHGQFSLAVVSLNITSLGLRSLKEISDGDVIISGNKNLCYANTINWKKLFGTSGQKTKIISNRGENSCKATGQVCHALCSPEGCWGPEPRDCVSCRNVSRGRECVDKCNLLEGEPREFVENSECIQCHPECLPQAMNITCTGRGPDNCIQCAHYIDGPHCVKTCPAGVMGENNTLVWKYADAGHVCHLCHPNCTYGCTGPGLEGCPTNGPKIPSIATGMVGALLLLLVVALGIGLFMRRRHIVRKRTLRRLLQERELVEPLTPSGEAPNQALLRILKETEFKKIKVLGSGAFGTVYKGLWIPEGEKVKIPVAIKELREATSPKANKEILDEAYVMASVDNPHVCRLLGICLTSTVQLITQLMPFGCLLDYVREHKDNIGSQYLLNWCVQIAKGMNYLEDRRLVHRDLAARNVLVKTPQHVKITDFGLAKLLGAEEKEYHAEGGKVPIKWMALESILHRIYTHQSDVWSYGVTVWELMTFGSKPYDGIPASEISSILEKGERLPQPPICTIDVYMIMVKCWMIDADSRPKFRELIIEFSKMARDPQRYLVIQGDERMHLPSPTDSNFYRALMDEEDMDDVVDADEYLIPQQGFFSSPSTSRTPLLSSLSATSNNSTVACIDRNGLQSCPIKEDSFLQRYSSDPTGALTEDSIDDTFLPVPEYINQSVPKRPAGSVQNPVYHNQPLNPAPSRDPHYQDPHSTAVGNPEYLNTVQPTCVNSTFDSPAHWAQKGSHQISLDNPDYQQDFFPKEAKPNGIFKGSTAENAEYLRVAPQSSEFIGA
Test [8] has as its target EGFR (human) (UniProt P00533). The source holds these as a separate data set.
The target in the next test is EGFR (UniProt P00533).
Sequence of EGFR (P00533 whole entry, looked up): as above
A further test deals with CDK2 (UniProt P24941). Put plainly: Enzyme Assay.
Test [9] deals with EGFR (human) (UniProt P00533). This is another data set of the same source.
A further test has as its target PIK3CD (Human) (UniProt O00329). Description: Enzyme Assay.
In another test the target is PIK3CG (human) (UniProt P48736). Description: Enzyme Assay.
Test [10] has as its target PIK3CA (human) (UniProt P42336). Put plainly: Inhibition of PIK3CA Kinase Activity.
The target of test [11] is PIK3CB (Human) (UniProt P42338). Put plainly: Inhibition of PIK3CB Kinase Activity.
Sequence of PIK3CB (Human) (P42338 whole entry, looked up): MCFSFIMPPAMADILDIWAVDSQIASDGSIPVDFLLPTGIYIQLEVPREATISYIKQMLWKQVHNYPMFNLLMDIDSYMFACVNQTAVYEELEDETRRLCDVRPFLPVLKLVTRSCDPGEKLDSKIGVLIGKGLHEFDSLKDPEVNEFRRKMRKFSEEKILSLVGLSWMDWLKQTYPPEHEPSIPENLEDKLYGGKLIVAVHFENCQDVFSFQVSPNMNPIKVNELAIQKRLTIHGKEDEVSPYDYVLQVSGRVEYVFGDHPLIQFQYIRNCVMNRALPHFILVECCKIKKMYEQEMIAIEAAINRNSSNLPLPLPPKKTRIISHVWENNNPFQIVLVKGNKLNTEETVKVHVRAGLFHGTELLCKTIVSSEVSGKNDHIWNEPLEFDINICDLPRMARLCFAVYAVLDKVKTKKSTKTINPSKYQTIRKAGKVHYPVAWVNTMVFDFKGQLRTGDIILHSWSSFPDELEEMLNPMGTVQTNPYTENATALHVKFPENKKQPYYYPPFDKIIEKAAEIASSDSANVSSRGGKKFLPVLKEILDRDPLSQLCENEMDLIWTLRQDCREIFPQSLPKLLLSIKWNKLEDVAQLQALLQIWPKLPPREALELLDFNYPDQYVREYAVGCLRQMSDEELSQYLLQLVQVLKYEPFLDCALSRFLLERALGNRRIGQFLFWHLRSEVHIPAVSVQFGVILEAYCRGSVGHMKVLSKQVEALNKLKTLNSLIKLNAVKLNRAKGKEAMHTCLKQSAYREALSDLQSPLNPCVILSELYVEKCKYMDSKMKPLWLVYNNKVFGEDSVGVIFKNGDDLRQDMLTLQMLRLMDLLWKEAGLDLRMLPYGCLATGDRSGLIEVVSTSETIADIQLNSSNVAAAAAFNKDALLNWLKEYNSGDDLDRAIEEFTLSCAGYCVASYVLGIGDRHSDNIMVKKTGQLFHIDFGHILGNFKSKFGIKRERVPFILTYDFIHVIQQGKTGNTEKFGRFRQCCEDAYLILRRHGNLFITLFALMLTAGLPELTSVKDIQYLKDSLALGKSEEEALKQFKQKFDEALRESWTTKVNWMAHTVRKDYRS

Sequence of PIK3CA (human) (P42336 whole entry, looked up): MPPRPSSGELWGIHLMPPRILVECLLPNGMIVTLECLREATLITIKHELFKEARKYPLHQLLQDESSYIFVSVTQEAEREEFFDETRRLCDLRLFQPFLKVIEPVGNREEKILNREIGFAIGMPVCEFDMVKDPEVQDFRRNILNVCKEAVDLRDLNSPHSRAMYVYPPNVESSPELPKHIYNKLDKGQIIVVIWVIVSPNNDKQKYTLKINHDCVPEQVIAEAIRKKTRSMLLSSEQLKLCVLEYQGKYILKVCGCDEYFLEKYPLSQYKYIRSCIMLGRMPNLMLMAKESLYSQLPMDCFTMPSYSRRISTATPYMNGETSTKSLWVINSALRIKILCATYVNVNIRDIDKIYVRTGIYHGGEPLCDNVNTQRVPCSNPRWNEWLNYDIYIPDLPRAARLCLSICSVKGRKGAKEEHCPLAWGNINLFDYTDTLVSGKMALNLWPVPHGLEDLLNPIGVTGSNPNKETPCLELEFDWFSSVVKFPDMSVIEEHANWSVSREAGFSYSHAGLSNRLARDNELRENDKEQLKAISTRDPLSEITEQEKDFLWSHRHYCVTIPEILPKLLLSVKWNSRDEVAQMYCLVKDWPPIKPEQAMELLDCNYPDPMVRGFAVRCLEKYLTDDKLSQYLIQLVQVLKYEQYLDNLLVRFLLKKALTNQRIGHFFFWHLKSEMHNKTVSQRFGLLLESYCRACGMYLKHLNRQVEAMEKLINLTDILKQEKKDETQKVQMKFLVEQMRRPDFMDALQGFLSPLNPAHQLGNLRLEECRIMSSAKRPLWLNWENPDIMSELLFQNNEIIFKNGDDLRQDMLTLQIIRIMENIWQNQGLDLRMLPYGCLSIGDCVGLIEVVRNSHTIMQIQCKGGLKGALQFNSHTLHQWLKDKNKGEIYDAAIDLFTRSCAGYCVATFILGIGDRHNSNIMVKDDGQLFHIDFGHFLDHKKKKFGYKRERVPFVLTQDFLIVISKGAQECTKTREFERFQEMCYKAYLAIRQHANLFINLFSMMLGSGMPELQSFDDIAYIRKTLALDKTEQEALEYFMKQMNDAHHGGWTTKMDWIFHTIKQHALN
Sequence of MAPK14 (Q16539 whole entry, looked up): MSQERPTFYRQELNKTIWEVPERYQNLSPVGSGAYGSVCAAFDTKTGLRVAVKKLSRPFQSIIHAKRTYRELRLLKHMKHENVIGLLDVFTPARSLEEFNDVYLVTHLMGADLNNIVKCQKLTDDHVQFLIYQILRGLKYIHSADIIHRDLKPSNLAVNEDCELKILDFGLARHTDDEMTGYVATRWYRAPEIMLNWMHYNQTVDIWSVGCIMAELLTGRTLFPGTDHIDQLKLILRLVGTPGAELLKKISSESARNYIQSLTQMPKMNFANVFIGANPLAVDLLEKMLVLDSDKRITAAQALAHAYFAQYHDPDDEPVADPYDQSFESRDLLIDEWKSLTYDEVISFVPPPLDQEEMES

Take `OCCCNc1cncc(-c2cncc(Nc3cccc(Cl)c3)n2)c1`: on MAPK14 [1], the IC50 (in general, the midpoint of a concentration-inhibition curve) was above 10000 nM.
As to `O=c1cc(NCc2ccccc2)nc(N2CCOCC2)[nH]1`, the IC50 against PIK3CA (human) [2] is 142000 nM; against PIK3CB (Human) [3], 34000 nM.
As to `O=C(O)c1sc2ncnc3c2c1NC(=O)N3c1ccc(F)c(Cl)c1`, the IC50 against EGFR (human) [4] worked out at 1700 nM.
Regarding `C[C@@H](Oc1ccccc1)c1cc(C(=O)N(C)CCO)cn2c(=O)cc(N3CCOCC3)nc12`, the IC50 on PIK3CA (human) [2] is 3500 nM; on PIK3CB (Human) [3] it was 100 nM.
Consider `Cc1cccc(C(=O)c2ccc(Nc3ccc(N)cc3)cc2Cl)c1`, for which, at MAPK14 [5], the IC50 was 190 nM.
`C[C@H](Nc1ncnc(N)c1C#N)c1nc2cccc(C#N)c2nc1-c1ccccc1S(C)(=O)=O` returned a concentration for half-maximal inhibition (IC50) on PIK3CB (Human) [6] above 10000 nM.
With `O=C(Nc1ccc(CN2CCOCC2)cc1)c1sc2ncnc3c2c1NC(=O)N3c1ccc(F)cc1Cl`, the IC50 at EGFR (human) [4] came to 23 nM.
For `C=CC(=O)N1CCC[C@H]1C(=O)Nc1ccc2ncnc(Nc3ccc(OCc4ccccn4)c(Cl)c3)c2c1`, the IC50 on EGFR (human) [7] amounted to 32 nM.
Same read-out and setting: the same measure for `C=CC(=O)N1CCC(C(=O)Nc2ccc3ncnc(Nc4ccc(OCc5ccccn5)c(Cl)c4)c3c2)CC1`: 513 nM.
Regarding `Clc1cccc(Nc2cncc(-c3cncc(NCCCn4cncn4)c3)n2)c1`, the IC50 against MAPK14 [1] is above 10000 nM.
For `C[C@@H]1CN(Cc2ccc(NC(=O)c3sc4ncnc5c4c3NC(=O)N5c3ccc(Oc4ccccc4)cc3)cc2)C[C@H](C)O1`, the half-inhibitory concentration (IC50) at EGFR (human) [4] was determined as 31 nM.
On MAPK14 [1], `Clc1cccc(Nc2cncc(-c3cncc(NCCCc4cccnc4)c3)n2)c1` showed an IC50 above 10000 nM.
Turning to `CCNc1nc(-c2cccc(O)c2)c(-c2ccnc(Nc3ccc(OCCN4CCCC4)c(Cl)c3)n2)s1`, the IC50 against EGFR (human) [8] was below 100 nM.
The same measure, in the same setting: the value for `Fc1cc(Nc2nccc(-c3sc(N4CCCC4)nc3-c3cccc(Cl)c3)n2)ccc1OCCN1CCCC1` was 100 to 1000 nM.
The compound `C[C@H](Nc1ncnc(N)c1C#N)c1cc2ccc(F)cc2nc1-c1ccccn1` showed an IC50 on PIK3CB (Human) [6] of 1950 nM.
Turning to `CCNc1nc(-c2cccc(OC)c2)c(-c2ccnc(Nc3ccc(OCCN(C)C)c(C)c3)n2)s1`, on EGFR (human) [8], the IC50 is below 100 nM.
With `C[C@H](Nc1ncnc(N)c1C#N)c1nc2ccc(F)cc2nc1-c1ccccn1`, the IC50 against PIK3CB (Human) [6] is above 10000 nM.
The compound `N[C@@H]1CCN(Cc2cccc3ncnc(Nc4cccc(Cl)c4)c23)C[C@H]1O` returned an IC50 at EGFR of 1 to 5000 nM.
For the compound `CC(C)S(=O)(=O)n1c(N)nc2ccc(-c3[nH]c(-c4c(F)cccc4F)nc3-c3ccccc3)cc21`, the Ki (as a rule, the dissociation constant of the complex between target and ligand, obtained from inhibition or displacement) on MAPK14 [5] came out at 5 nM.
For `OCCCCNc1cncc(-c2cncc(Nc3cccc(Cl)c3)n2)c1`, the IC50 against MAPK14 [1] was above 10000 nM.
Consider `O=C(Nc1ccc(CNC[C@@H]2CCCO2)cc1)c1sc2ncnc3c2c1NC(=O)N3c1ccc(F)c(Cl)c1`, for which, on EGFR (human) [4], the IC50 is 44 nM.
Compound `CCNc1nc(-c2cccc(OC)c2)c(-c2ccnc(Nc3ccc(OCCN4CCCC4)c(F)c3)n2)s1` displayed an IC50 on EGFR (human) [8] below 100 nM.
As for `CN(C)CCNc1cncc(-c2cncc(Nc3cccc(Cl)c3)n2)c1`, the IC50 against MAPK14 [1] was above 10000 nM.
With `COc1cc(-c2nc(N3CCCC3)sc2-c2ccnc(Nc3ccc(OCCN4CCCC4)c(F)c3)n2)ccc1Cl`, at EGFR (human) [8], the IC50 is 100 to 1000 nM.
At MAPK14 [1], `Clc1cccc(Nc2cncc(-c3cncc(NCCCn4cccn4)c3)n2)c1` registered an IC50 above 10000 nM.
For `N[C@H](COc1cncc(-c2ccc3[nH]ncc3c2)c1)Cc1c[nH]c2ccccc12`, the IC50 against MAPK14 [1] worked out at 12200 nM; against CDK2, 63 nM. At CDK2, this compound registered an inhibition constant Ki of 42 nM.
In turn, `Clc1cccc(Nc2ncnc3sc4c(c23)CCCC4)c1` returned an IC50 on EGFR (human) [9] of 1.97 nM. That is a single-digit nanomolar value.
Compound `C#Cc1cccc(Nc2ncnc3cccc(CN4CC[C@@H](N)[C@H](CO)C4)c23)c1` yielded an IC50 on EGFR of 1 to 5000 nM.
For the compound `CCN1CCN(c2cccc3c2CCN3C(=O)Cc2nc(N3CCOCC3)cc(=O)[nH]2)CC1`, the IC50 on PIK3CD (Human) came to 2 nM; on PIK3CG (human) it was 10000 nM; against PIK3CA (human) [2], 660 nM; against PIK3CB (Human) [3], 332 nM.
In turn, `N#Cc1ccc(NC(=O)c2sc3ncnc4c3c2NC(=O)N4c2ccc(F)c(Cl)c2)cn1` yielded an IC50 at EGFR (human) [4] of 116 nM. This lies in the sub-micromolar range.
The compound `C[C@H](Nc1ncnc(N)c1C#N)c1cc2cccc(F)c2nc1-c1ccccc1S(C)(=O)=O` yielded an IC50 against PIK3CB (Human) [6] of 5970 nM. This counts as single-digit micromolar.
On to `O=C(c1nn([C@@H]2CCCN(CCN3CCOCC3)C2)c2c1CS(=O)(=O)c1c(F)cccc1-2)N1CCOCC1`, for which the IC50 against PIK3CD (Human) came out at 15 nM; against PIK3CA (human) [2], 7650 nM; on PIK3CB (Human) [3] it was 2450 nM.
Turning to `N[C@H](COc1cncc(-c2cc3cn[nH]c3cn2)c1)Cc1c[nH]c2ccccc12`, the IC50 was 750 nM on MAPK14 [1] and 6 nM against CDK2.
As for `Cc1nc(N)nc2c1cc(-c1ccc(N)nc1)c(=O)n2[C@@H]1CCOC1`, the half-inhibitory concentration (IC50) against PIK3CA (human) [10] is below 9.1 nM; on PIK3CB (Human) [11], 34 nM.

(Values after the Kinase Knowledgebase extract (Sharma et al. 2016).)
